# Experimental data reported in ChEMBL document CHEMBL5665443, “Enzyme Inhibitor Single Concentration assay results for EUbOPEN Chemogenomics Library” (2024).
# Assays:
# [1] = biological target: Methyl-CpG-binding domain protein 4 (Homo sapiens) (UniProt O95243); details: Compound Concentration 10.0 uM;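 further: MBD4 activity read as fluorescence at 594 nm from cleavage and release of a quenched duplex DNA oligonucleotide, with APE1 coupled to incise the strand and raise turnover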
# Description: Inhibition of MBD4 by quantifying inhibition of MBD4-mediated cleavage and dissociation of quenched duplex DNA oligonucleotides, measured as fluorescence at 594 nm. To generate a functional strand incision and increase turn-over this assay is coupled to APE1.
# [2] = biological target: DNA-3-methyladenine glycosylase (Homo sapiens) (UniProt P29372); details: Compound Concentration 10.0 uM;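 further: enzyme assay where MPG cuts a quenched duplex DNA oligonucleotide probe, paired with APE1 for strand incision and turnover, read as fluorescence at 594 nm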
# Sequence of DNA-3-methyladenine glycosylase (Homo sapiens) (P29372 whole entry): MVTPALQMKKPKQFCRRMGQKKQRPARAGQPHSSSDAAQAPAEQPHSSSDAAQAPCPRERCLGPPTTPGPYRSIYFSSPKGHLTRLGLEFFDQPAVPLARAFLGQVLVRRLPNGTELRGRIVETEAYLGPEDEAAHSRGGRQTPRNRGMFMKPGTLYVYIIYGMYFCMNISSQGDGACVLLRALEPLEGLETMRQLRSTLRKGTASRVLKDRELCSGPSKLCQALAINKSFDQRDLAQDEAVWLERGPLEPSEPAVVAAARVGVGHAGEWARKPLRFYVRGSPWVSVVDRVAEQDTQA
# Description: Inhibition of MPG by quantifying inhibition of MPG-mediated cleavage and dissociation of quenched duplex DNA oligonucleotides, measured as fluorescence at 594 nm. To generate a functional strand incision and increase turn-over this assay is coupled to APE1.
# [3] = biological target: T1, Adenine DNA glycosylase (Homo sapiens) (UniProt Q9UIF7); details: Compound Concentration 10.0 uM, Hit No;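 further: human MUTYH activity read as 594 nm fluorescence from cleavage and release of a quenched DNA duplex, coupled with APE1 for strand incision, lower signal meaning inhibition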
# T1 sequence (whole entry): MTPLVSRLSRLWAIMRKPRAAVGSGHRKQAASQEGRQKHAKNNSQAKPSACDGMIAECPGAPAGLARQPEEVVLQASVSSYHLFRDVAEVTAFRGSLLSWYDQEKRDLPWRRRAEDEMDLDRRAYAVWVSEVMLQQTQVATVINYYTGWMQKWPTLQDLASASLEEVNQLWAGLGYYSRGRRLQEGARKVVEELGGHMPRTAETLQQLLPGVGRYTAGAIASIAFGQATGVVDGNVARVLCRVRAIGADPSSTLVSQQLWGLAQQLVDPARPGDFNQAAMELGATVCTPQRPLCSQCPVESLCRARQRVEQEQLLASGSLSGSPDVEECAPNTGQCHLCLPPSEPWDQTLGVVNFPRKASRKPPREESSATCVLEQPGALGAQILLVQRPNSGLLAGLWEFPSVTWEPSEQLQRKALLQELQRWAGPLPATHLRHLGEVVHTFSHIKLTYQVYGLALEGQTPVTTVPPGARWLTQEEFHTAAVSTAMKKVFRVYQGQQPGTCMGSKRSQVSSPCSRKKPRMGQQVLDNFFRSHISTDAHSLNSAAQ
# Description: Inhibition of MUTYH by quantifying inhibition of MUTYH-mediated cleavage and dissociation of quenched duplex DNA oligonucleotides, measured as fluorescence at 594 nm. To generate a functional strand incision and increase turn-over this assay is coupled to APE1.
# [4] = biological target: Endonuclease 8-like 1 (Homo sapiens) (UniProt Q96FI4); details: Compound Concentration 10.0 uM;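 further: fluorescence at 594 nm from quenched duplex DNA oligonucleotides released by NEIL1 cleavage and strand separation, reported as reduction of this enzyme activity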
# Sequence of Endonuclease 8-like 1 (Homo sapiens) (Q96FI4 whole entry): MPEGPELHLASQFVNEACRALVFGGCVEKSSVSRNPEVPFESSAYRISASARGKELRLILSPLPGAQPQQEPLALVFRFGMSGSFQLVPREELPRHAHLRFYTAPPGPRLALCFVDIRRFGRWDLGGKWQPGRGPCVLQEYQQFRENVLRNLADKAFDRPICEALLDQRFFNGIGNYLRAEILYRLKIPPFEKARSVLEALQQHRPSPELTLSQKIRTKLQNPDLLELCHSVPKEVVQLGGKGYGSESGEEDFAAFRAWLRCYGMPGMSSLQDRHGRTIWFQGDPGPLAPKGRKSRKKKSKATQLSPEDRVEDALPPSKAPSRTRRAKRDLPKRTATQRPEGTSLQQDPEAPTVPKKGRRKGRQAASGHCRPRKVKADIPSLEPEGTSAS
# Description: Inhibition of NEIL1 by quantifying inhibition of NEIL1-mediated cleavage and dissociation of quenched duplex DNA oligonucleotides, measured as fluorescence at 594 nm.
# [5] = biological target: T2, Endonuclease 8-like 2 (Homo sapiens) (UniProt Q969S2); details: Compound Concentration 10.0 uM;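 further: fluorescence at 594 nm reports NEIL2 cutting and release of a quenched double-stranded DNA oligo substrate, reduced signal read as inhibition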
# T2 sequence (whole entry): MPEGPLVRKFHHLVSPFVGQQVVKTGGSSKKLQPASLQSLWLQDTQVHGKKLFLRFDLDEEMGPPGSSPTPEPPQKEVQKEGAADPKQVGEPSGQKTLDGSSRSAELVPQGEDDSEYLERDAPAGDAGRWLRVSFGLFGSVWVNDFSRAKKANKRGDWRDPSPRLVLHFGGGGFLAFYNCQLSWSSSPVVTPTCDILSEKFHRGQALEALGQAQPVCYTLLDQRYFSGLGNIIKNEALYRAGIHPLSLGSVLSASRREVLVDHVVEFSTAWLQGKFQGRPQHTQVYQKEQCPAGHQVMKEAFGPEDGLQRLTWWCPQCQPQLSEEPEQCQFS
# Description: Inhibition of NEIL2 by quantifying inhibition of NEIL2-mediated cleavage and dissociation of quenched duplex DNA oligonucleotides, measured as fluorescence at 594 nm.
# [6] = biological target: T3, Endonuclease III-like protein 1 (Homo sapiens) (UniProt P78549); details: Compound Concentration 10.0 uM;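 further: enzyme assay tracking NTHL1 cutting and release of a quenched double-stranded DNA oligo substrate, read as fluorescence at 594 nm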
# T3 sequence (whole entry): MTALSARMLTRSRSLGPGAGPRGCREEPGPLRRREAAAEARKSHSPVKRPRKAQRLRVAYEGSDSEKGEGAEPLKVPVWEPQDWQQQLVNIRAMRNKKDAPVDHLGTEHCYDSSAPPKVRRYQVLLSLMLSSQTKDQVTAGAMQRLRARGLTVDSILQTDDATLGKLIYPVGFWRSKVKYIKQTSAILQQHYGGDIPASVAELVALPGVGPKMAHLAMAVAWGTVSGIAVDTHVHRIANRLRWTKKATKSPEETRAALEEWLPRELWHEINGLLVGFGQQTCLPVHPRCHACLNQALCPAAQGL
# Description: Inhibition of NTHL1 by quantifying inhibition of NTHL1-mediated cleavage and dissociation of quenched duplex DNA oligonucleotides, measured as fluorescence at 594 nm.
# [7] = biological target: N-glycosylase/DNA lyase (Homo sapiens) (UniProt O15527); details: Compound Concentration 10.0 uM;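 further: OGG1 cleavage of a quenched duplex DNA oligonucleotide, coupled to APE1 for strand incision, read as fluorescence at 594 nm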
# Sequence of N-glycosylase/DNA lyase (Homo sapiens) (O15527 whole entry): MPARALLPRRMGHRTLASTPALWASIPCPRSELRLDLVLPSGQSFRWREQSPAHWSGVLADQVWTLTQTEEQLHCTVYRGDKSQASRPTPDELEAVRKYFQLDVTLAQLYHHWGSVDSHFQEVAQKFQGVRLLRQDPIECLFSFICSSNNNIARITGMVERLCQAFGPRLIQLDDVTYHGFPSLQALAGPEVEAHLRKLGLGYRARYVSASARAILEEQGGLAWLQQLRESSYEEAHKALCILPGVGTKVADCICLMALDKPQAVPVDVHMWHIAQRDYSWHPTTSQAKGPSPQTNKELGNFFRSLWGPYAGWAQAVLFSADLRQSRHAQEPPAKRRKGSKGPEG
# Description: Inhibition of OGG1 by quantifying inhibition of OGG1-mediated cleavage and dissociation of quenched duplex DNA oligonucleotides, measured as fluorescence at 594 nm. To generate a functional strand incision and increase turn-over this assay is coupled to APE1.
# [8] = biological target: T4, Single-strand selective monofunctional uracil DNA glycosylase (Homo sapiens) (UniProt Q53HV7); details: Compound Concentration 10.0 uM;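 further: enzymatic SMUG1 assay coupled with APE1, reading fluorescence at 594 nm released when a quenched double-stranded DNA oligonucleotide substrate is cleaved and separated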
# T4 sequence (whole entry): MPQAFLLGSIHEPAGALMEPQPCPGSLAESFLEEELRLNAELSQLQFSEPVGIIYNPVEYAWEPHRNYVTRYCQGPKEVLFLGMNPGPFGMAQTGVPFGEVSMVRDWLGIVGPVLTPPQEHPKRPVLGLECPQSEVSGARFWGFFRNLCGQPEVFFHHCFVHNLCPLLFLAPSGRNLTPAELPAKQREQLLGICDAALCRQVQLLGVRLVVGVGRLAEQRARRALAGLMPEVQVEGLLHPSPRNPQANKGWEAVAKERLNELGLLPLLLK
# Description: Inhibition of SMUG1 by quantifying inhibition of SMUG1-mediated cleavage and dissociation of quenched duplex DNA oligonucleotides, measured as fluorescence at 594 nm. To generate a functional strand incision and increase turn-over this assay is coupled to APE1.
# [9] = biological target: G/T mismatch-specific thymine DNA glycosylase (Homo sapiens) (UniProt Q13569); details: Compound Concentration 10.0 uM;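 further: human TDG cleavage of quenched duplex DNA oligonucleotides coupled to APE1, strand release read as fluorescence at 594 nm, inhibition of TDG activity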
# Sequence of G/T mismatch-specific thymine DNA glycosylase (Homo sapiens) (Q13569 whole entry): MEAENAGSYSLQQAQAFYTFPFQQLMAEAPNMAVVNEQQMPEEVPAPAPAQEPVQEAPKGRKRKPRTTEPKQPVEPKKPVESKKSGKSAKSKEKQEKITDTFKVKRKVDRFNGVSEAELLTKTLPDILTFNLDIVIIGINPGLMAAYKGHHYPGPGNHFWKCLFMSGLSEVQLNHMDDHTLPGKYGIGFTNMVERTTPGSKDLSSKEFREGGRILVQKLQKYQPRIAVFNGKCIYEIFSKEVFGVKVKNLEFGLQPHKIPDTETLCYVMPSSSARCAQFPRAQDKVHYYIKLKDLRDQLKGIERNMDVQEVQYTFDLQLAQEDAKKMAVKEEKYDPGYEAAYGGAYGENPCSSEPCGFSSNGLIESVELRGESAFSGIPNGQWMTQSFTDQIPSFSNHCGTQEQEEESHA
# Description: Inhibition of TDG by quantifying inhibition of TDG-mediated cleavage and dissociation of quenched duplex DNA oligonucleotides, measured as fluorescence at 594 nm. To generate a functional strand incision and increase turn-over this assay is coupled to APE1.
# [10] = biological target: Uracil-DNA glycosylase (Homo sapiens) (UniProt P13051); details: Compound Concentration 10.0 uM;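 further: UNG excision on a quenched double-stranded DNA oligo probe, with APE1 added for strand incision and turnover, read as fluorescence at 594 nm as strands separate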
# Sequence of Uracil-DNA glycosylase (Homo sapiens) (P13051 whole entry): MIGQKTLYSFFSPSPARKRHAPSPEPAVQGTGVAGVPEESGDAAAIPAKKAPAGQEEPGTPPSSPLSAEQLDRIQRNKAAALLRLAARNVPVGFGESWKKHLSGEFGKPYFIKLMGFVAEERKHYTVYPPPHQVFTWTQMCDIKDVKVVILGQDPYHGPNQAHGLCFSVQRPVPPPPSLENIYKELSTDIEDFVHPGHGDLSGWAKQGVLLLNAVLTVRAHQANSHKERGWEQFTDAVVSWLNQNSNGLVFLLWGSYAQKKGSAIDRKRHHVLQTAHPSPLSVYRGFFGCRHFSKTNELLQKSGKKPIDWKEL
# Description: Inhibition of UNG by quantifying inhibition of UNG-mediated cleavage and dissociation of quenched duplex DNA oligonucleotides, measured as fluorescence at 594 nm. To generate a functional strand incision and increase turn-over this assay is coupled to APE1.
# Sequence of Methyl-CpG-binding domain protein 4 (Homo sapiens) (O95243 whole entry, the tested form may be a part): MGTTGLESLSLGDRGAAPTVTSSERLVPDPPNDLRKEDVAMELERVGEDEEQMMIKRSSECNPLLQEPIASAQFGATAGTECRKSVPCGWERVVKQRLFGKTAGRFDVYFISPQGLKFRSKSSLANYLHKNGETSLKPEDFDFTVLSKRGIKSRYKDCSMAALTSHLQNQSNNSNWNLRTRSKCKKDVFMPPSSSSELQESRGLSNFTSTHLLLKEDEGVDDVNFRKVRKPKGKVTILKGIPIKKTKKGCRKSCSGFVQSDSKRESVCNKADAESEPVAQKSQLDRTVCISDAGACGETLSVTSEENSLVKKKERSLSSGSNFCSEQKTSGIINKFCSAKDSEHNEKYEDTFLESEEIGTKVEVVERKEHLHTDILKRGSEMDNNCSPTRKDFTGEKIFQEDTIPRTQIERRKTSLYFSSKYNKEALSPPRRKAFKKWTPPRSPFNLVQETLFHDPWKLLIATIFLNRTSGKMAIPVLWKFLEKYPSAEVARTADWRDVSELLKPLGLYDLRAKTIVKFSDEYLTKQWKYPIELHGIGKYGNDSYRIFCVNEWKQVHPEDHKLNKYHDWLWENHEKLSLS
SMILES,inhibition ([1]; Hit No),inhibition ([2]; Hit No),inhibition [3],inhibition ([4]; Hit No),inhibition ([5]; Hit No),inhibition ([6]; Hit No),inhibition ([7]; Hit No),inhibition ([8]; Hit No),inhibition ([9]; Hit No),inhibition ([10]; Hit No),inhibition ([2]; Hit Yes),inhibition ([4]; Hit Yes),inhibition ([5]; Hit Yes),inhibition ([6]; Hit Yes),inhibition ([7]; Hit Yes),inhibition ([8]; Hit Yes),inhibition ([9]; Hit Yes),inhibition ([1]; Hit Yes),inhibition ([10]; Hit Yes)
CCc1cc(C(C)=O)c(O)cc1OCCCCCC(C)(C)c1nn[nH]n1,24%,13%,7.7%,-0.204%,-8.97%,9.99%,16.1%,0.79%,21.1%,-4.34%,,,,,,,,,
CN1CCN(c2ccc(Nc3c4ccccc4nc4ccccc34)cc2)CC1,88.7%,,113%,,,,,,,12.9%,90.3%,65.5%,90.9%,84.8%,84.8%,78.7%,73%,,
Nc1ncnc2c1ncn2[C@@H]1O[C@H](COP(=O)(O)OP(=O)(O)O)[C@@H](O)[C@H]1O,10.8%,-6.47%,18.3%,8.75%,1.69%,11.3%,-9.66%,-0.127%,26.4%,-1.19%,,,,,,,,,
CC(=O)[C@H]1CC[C@H]2[C@@H]3CC[C@H]4C[C@H](O)CC[C@]4(C)[C@H]3CC[C@]12C,25.8%,31.5%,1.4%,9.05%,5.51%,,7.89%,13.9%,19.2%,-1.14%,,,,46%,,,,,
O=C(O)CC1CCC2(CC1)CCN(c1cc(OC(F)(F)F)ccc1Cl)CC2,25.2%,14.1%,19.4%,3.8%,7.5%,-1.74%,8.63%,4.67%,32.9%,-5.76%,,,,,,,,,
Cn1c(C2(NC(=O)c3ccc4c(C5CCCC5)c(-c5ncc(Br)cn5)n(C)c4c3)CCC2)nc2ccc(/C=C/C(=O)O)cc21,69.3%,107%,68.7%,12.4%,,0.685%,60.3%,25.4%,101%,13.1%,,,40.3%,,,,,,
O=C(O)CCc1ccc(NCc2cccc(Oc3ccccc3)c2)cc1,13.6%,6.47%,13.9%,-7.7%,-9.01%,-4.39%,-0.368%,-4.08%,20%,-1.29%,,,,,,,,,
CCCN(CCC)CCc1cccc2c1CC(=O)N2,2.3%,-1.21%,10.1%,7.51%,1.01%,-4.67%,-5.66%,-5.12%,8.55%,-9.36%,,,,,,,,,
NCC(O)c1ccc(O)cc1 (stereo not given),41.7%,13.2%,17.4%,3.71%,2.96%,2.22%,-0.921%,16%,14.3%,0.665%,,,,,,,,,
NC(=O)NN=Cc1ccc(Oc2ccc(F)cc2)cc1,-2.63%,2.76%,8.22%,9.49%,-3.41%,0.568%,-9.24%,-4.59%,11.3%,-5.79%,,,,,,,,,
Cc1ccc2nc(NCCN)c3ncc(C)n3c2c1,53%,75.9%,83.5%,,,,47.4%,44.2%,67.6%,14.9%,,28.9%,47.1%,43.3%,,,,,
C[C@@H](CN1CCC(Cc2ccccc2)CC1)[C@@H](O)c1ccc(O)cc1,-0.918%,-5.23%,-7.47%,3.42%,2.2%,12.9%,-8.67%,4.28%,-7.39%,-6.48%,,,,,,,,,
N[C@](CC1c2ccccc2Oc2ccccc21)(C(=O)O)[C@H]1C[C@@H]1C(=O)O,16.1%,10.3%,12.3%,0.898%,0.414%,8.82%,-5.15%,-0.127%,24.2%,-3.16%,,,,,,,,,
O=C(O)COc1cccc(-c2ocnc2-c2nc(-c3ccccc3)c(-c3ccccc3)o2)c1,49.9%,20.4%,65%,1.64%,-0.35%,8.82%,18.4%,-6.12%,51%,-2.35%,,,,,,,,,
CC[C@H](C(=O)Nc1ccccc1N1CCCC1)c1ccccc1,34.6%,33.7%,20.6%,13.8%,3.22%,2.22%,0.561%,1.62%,33.1%,-2.53%,,,,,,,,,
CC(=O)Nc1cccc2c1c(Sc1ccc(Cl)cc1)c(C)n2CC(=O)O,11.4%,5.39%,23.9%,-0.204%,5.76%,6.32%,3.49%,-1.39%,16.4%,-0.965%,,,,,,,,,
O=S(=O)(Nc1nnc2cc(OCC34CC5CC(CC(C5)C3)C4)c(C3CC3)cn12)C1CC1,,62.1%,84.7%,6.23%,11.9%,10.5%,,11.5%,,12%,,,,,53%,,73.8%,80.9%,
COc1cc2nc(N3CCN(C(=O)C4CCCO4)CC3)nc(N)c2cc1OC (stereo not given),17%,11.2%,19%,13.6%,22.5%,-3.21%,0.439%,3.65%,22.2%,-7.11%,,,,,,,,,
CCn1cc(-c2ccnc3[nH]c(-c4cccc(CN(C)C)c4)cc23)c(-c2ccc(NC(=O)N(C)C)cc2)n1,22.5%,62.9%,78.6%,-6.47%,23.1%,2.18%,14.9%,24.3%,49%,,,,,,,,,,25%
O=c1c(Br)ccc2n1C[C@@H]1CNC[C@H]2C1,13.1%,3.69%,-5.79%,1.79%,-6.72%,8.82%,-1.3%,8.97%,22.8%,-0.226%,,,,,,,,,
O=c1ccc2c(OCCCCc3ccccc3)c3ccoc3cc2o1,-4.82%,2.27%,4.38%,4.31%,2.71%,7.17%,0.716%,0.0989%,5.01%,-2.86%,,,,,,,,,
